# Assay results reported in US20120202794A1 (priority 2011, published 2012).
# Experiments:
# HCV Replicon 1b = assay: HCV inhibition assay, HCV replicon 1b (Clone A or ET-lunet cells; RT-PCR or luciferase reporter); type: cell-based; conditions: Hepatitis C virus, 96 h, HCV replicon 1b; 4 days incubation; read-out: Replicon 1b potency EC90
# Method in brief: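 Clone A (1500/well) or ET-lunet (3000/well) replicon cells treated with serially diluted compounds (0.5% DMSO, no G418) for 4 days at 37 °C. HCV RNA measured by one-step RT-PCR normalized to rRNA (ΔΔCt) or by luciferase luminescence versus DMSO controls; EC50/EC90 by curve fitting.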
# [1] = Cell cytotoxicity assay (MTS), CC90 as reported in Table 1, cell line not stated; type: cell-based; conditions: human, cell line not given
# Method in brief: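 Compounds, serially diluted from 100 μM, were incubated 8 days at 37° C with Huh7, HepG2 or BxPC3 (2×10^3 cells/well) or CEM (5×10^3 cells/well). Viability was read by MTS, 2 h, absorbance 490 nm. CC90 (90% inhibition) was taken against untreated cells.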
Compound,EC90 (HCV Replicon 1b) [µM],CC90 at 8 days [1] [µM],"CC90 at 8 days ([1]; MTS assay, 8 days incubation) [µM]"
"CC(C)C[C@H]1C(=O)N[C@@H](C2CCCCC2)CN1C(=O)[C@@H]1C[C@H]1c1ccc(Cl)cc1 [Compound 245, (3S,6S)-4-[(1R,2R)-2-(4-Chloro-phenyl)-cyclopropanecarbonyl]-6-cyclohexyl-3-isobutyl-piperazin-2-one]",0.62,> 10,–
"CC(C)C[C@H]1C(=O)N[C@@H](C2CCCC2)CN1C(=O)[C@@H]1C[C@H]1c1ccc(Cl)cc1 [Compound 246, (3S,6S)-4-[(1R,2R)-2-(4-Chloro-phenyl)-cyclopropanecarbonyl]-6-cyclopentyl-3-isobutyl-piperazin-2-one]",0.2,> 10,–
"CC(C)C[C@H]1C(=O)N[C@@H](c2ccccc2)CN1C(=O)[C@@H]1C[C@H]1c1ccc(F)cc1 [Compound 247, (3S,6S)-4-[(1R,2R)-2-(4-Fluoro-phenyl)-cyclopropanecarbonyl]-3-isobutyl-6-phenyl-piperazin-2-one]",0.05,> 10,–
"CC(C)C[C@H]1C(=O)N[C@@H](c2ccccc2)CN1C(=O)[C@@H]1C[C@H]1c1ccc(Cl)cc1 [Compound 248, (3S,6S)-4-[(1R,2R)-2-(4-Chloro-phenyl)-cyclopropanecarbonyl]-3-isobutyl-6-phenyl-piperazin-2-one]",0.16,> 10,–
"CC(C)C[C@H]1CN(C(=O)[C@@H]2C[C@H]2c2ccc(C(C)(C)C)cc2)[C@@H](CC(C)C)C(=O)N1 [Compound 249, (3S,6S)-4-[(1R,2R)-2-(4-tert-Butyl-phenyl)-cyclopropanecarbonyl]-3,6-diisobutyl-piperazin-2-one]",0.75,> 10,–
"CC(C)C[C@H]1CN(C(=O)[C@@H]2C[C@H]2c2ccc(Cl)cc2F)[C@@H](CC(C)C)C(=O)N1 [Compound 250, (3S,6S)-4-[(1R,2R)-2-(4-Chloro-2-fluoro-phenyl)-cyclopropanecarbonyl]-3,6-diisobutyl-piperazin-2-one]",0.36,> 10,–
CCC[C@H]1CN(C(=O)[C@@H]2C[C@H]2c2ccc(Cl)cc2F)[C@@H](CC(C)C)C(=O)N1 [Compound 251],0.2,> 10,–
CC(C)C[C@H]1C(=O)N[C@@H](C2CCCCC2)CN1C(=O)[C@@H]1C[C@H]1c1ccc(Cl)cc1F [Compound 252],0.67,> 10,–
"CC(C)C[C@H]1C(=O)N[C@@H](C2CCCC2)CN1C(=O)[C@@H]1C[C@H]1c1ccc(Cl)cc1F [Compound 253, (3S,6S)-4-[(1R,2R)-2-(4-Chloro-2-fluoro-phenyl)-cyclopropanecarbonyl]-6-cyclopentyl-3-isobutyl-piperazin-2-one]",0.5,> 10,–
"CC(C)C[C@H]1C(=O)N[C@@H](C(C)C)CN1C(=O)[C@@H]1C[C@H]1c1ccc(Cl)cc1F [Compound 254, (3S,6S)-4-[(1R,2R)-2-(4-Chloro-2-fluoro-phenyl)-cyclopropanecarbonyl]-3-isobutyl-6-isopropyl-piperazin-2-one]",0.66,> 10,–
"CC(C)C[C@H]1C(=O)N[C@@H](c2ccccc2)CN1C(=O)[C@@H]1C[C@H]1c1ccc(Cl)cc1F [Compound 255, (3S,6S)-4-[(1R,2R)-2-(4-Chloro-2-fluoro-phenyl)-cyclopropanecarbonyl]-3-isobutyl-6-phenyl-piperazin-2-one]",0.36,> 10,–
"CC(C)C[C@H]1CN(C(=O)[C@@H]2C[C@H]2c2ccc(F)cc2F)[C@@H](CC(C)C)C(=O)N1 [Compound 256, (3S,6S)-4-[(1R,2R)-2-(2,4-Difluoro-phenyl)-cyclopropanecarbonyl]-3,6-diisobutyl-piperazin-2-one]",0.22,> 10,–
"CCC[C@H]1CN(C(=O)[C@@H]2C[C@H]2c2ccc(F)c(F)c2)[C@@H](CC(C)C)C(=O)N1 [Compound 257, (3S,6S)-4-[(1R,2R)-2-(3,4-Difluoro-phenyl)-cyclopropanecarbonyl]-3-isobutyl-6-propyl-piperazin-2-one]",0.59,> 10,–
"CC(C)C[C@H]1C(=O)N[C@@H](C2CCCCC2)CN1C(=O)[C@@H]1C[C@H]1c1ccc(F)c(F)c1 [Compound 258, (3S,6S)-6-Cyclohexyl-4-[(1R,2R)-2-(3,4-difluoro-phenyl)-cyclopropanecarbonyl]-3-isobutyl-piperazin-2-one]",0.56,> 10,–
"CC(C)C[C@H]1C(=O)N[C@@H](C2CCCC2)CN1C(=O)[C@@H]1C[C@H]1c1ccc(F)c(F)c1 [Compound 259, (3S,6S)-6-Cyclopentyl-4-[(1R,2R)-2-(3,4-difluoro-phenyl)-cyclopropanecarbonyl]-3-isobutyl-piperazin-2-one]",0.59,> 10,–
"CC(C)C[C@H]1C(=O)N[C@@H](c2ccccc2)CN1C(=O)[C@@H]1C[C@H]1c1ccc(F)c(F)c1 [Compound 260, (3S,6S)-4-[(1R,2R)-2-(3,4-Difluoro-phenyl)-cyclopropanecarbonyl]-3-isobutyl-6-phenyl-piperazin-2-one]",0.23,> 10,–
"CC(C)C[C@H]1CN(C(=O)/C=C/c2ccc(N(C)C)cc2)[C@@H](CC(C)C)C(=O)N1 [Compound 261, (3S,6S)-4-((E)-3-(4-(dimethylamino)phenyl)acryloyl)-3,6-diisobutylpiperazin-2-one]",> 10,–,> 10
"CC(C)C[C@H]1CN(C(=O)C#Cc2cccnc2)[C@@H](CC(C)C)C(=O)N1 [Compound 262, (3S,6S)-3,6-diisobutyl-4-(3-(pyridin-3-yl)propioloyl)piperazin-2-one]",> 10,–,> 10
"COc1ccc(/C=C/C(=O)N2C[C@H](CC(C)C)NC(=O)[C@@H]2CC(C)C)cc1 [Compound 263, (3S,6S)-3,6-diisobutyl-4-((E)-3-(4-methoxyphenyl)acryloyl)piperazin-2-one]",8.7,–,> 10
"CC(C)C[C@H]1CN(C(=O)/C=C/c2cccc(Cl)c2)[C@@H](CC(C)C)C(=O)N1 [Compound 264, (3S,6S)-4-[3-(3-chlorophenyl)-acryloyl]-3,6-diisobutyl-piperazin-2-one]",8.1,–,> 10
"CC(C)C[C@H]1CN(C(=O)/C=C/c2ccccc2Cl)[C@@H](CC(C)C)C(=O)N1 [Compound 265, (3S,6S)-4-[3-(2-chlorophenyl)-acryloyl]-3,6-diisobutyl-piperazin-2-one]",9.75,–,> 10
CC(C)C[C@H]1CN(C(=O)/C=C/c2ccccc2F)[C@@H](CC(C)C)C(=O)N1 [Compound 266],7.93,–,> 10
"CC(C)C[C@H]1CN(C(=O)/C=C/c2ccc(Cl)cc2Cl)[C@@H](CC(C)C)C(=O)N1 [Compound 267, (3S,6S)-4-[3-(2,4-dichloro-phenyl)-acryloyl]-3,6-diisobutyl-piperazin-2-one]",6.89,–,> 10
"CSc1ccc(/C=C/C(=O)N2C[C@H](CC(C)C)NC(=O)[C@@H]2CC(C)C)cc1 [Compound 268, (3S,6S)-3,6-diisobutyl-4-((E)-3-(4-methylsulfanyl-phenyl)acryloyl)piperazin-2-one]",9.8,–,> 10
"CC(C)C[C@H]1CN(C(=O)/C=C/c2ccc(C(C)(C)C)cc2)[C@@H](CC(C)C)C(=O)N1 [Compound 269, (3S,6S)-3,6-diisobutyl-4-((E)-3-(4-tert-butyl-phenyl)acryloyl)piperazin-2-one]",8.9,–,> 10
